Patent US7897627B2, “Heteroaryl derivatives as orexin receptor antagonists” (Hoffmann-La Roche Inc., priority 2007, dated 2011)

Biological target: T1, human orexin-2 (hOX2) receptor (Homo sapiens, UniProt O43614)
T1 construct: expressed in transfected cells
T1 sequence (O43614 1-444): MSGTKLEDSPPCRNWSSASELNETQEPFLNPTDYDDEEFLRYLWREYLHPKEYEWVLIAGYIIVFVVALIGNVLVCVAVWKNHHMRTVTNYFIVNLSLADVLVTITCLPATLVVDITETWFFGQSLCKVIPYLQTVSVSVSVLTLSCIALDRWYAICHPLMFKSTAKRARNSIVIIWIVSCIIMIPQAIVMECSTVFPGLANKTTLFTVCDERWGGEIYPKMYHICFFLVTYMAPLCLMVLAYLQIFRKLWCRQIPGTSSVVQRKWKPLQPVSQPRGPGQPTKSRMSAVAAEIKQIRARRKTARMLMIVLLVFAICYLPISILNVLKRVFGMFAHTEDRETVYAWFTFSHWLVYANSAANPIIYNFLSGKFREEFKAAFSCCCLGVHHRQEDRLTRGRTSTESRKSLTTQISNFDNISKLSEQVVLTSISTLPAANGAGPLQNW
Test: Intracellular Ca2+ mobilization assay (FLIPR), CHO(dHFr-) cells expressing hOX2, orexin-A as agonist
Format: cell-based
Details: antagonist Kb=IC50/(1+[A]/EC50); orexin-A at EC80; CHO(dHFr-)-OX2R cells; antagonist applied 25 min before agonist
Method: Intracellular Ca^2+ Mobilization Assay
The Chinese Hamster Ovary (dHFr-) mutant cell line stably expressing human orexin-1 (hOX1) or human orexin-2 (hOX2) receptors were maintained in Dulbecco's Modified Eagle Medium (1×) with GlutaMax™1, 4500 mg/L D-Glucose and Sodium Pyruvate (Catalog No. 31966-021, Invitrogen, Carlsbad, Calif.), 5% dialyzed fetal calf serum (Catalog No. 26400-044), 100 μg/ml penicillin and 100 μg/ml streptomycin. The cells were seeded at 5×10^4 cells/well in the poly-D-lysine treated, 96-well, black/clear-bottomed plates (Catalog No. BD356640, BD Biosciences, Palo Alto, Calif.). 24 h later, the cells were loaded for 1 h at 37° C. with 4 μM Flou-4 acetoxymethyl ester (Catalog No. F-14202, Molecular Probes, Eugene, Oreg.) in FLIPR buffer (1×HBSS, 20 mM HEPES, 2.5 mM Probenecid). Hanks' Balanced Salt Solution (HBSS) (10×) (catalog No. 14065-049) and HEPES (1M) (catalog No. 15630-056) were purchased from Invitrogen, Carlsbad, Calif. Probenecid (250 mM) (catalog No. P8761) was from Sigma, Buchs, Switzerland. The cells were washed five times with FLIPR buffer to remove excess dye and intracellular calcium mobilization, [Ca^2−]i were measured using a Fluorometric Imaging Plate Reader (FLIPR-96, Molecular Devices, Menlo Park, Calif.) as described previously (Malherbe et al., Mol. Pharmacol., 64, 823-832, 2003). Orexin A (catalog No. 1455, Toris Cookson Ltd, Bristol, UK) was used as agonist. Orexin A ([…] stock solution in DMSO) was diluted in FLIPR buffer+0.1% BSA. The EC50 and EC80 values of orexin-A were measured daily from standard agonist concentration-response curves in CHO(dHFr-)-OX1R and -OX2R cell lines. All compounds were dissolved in 100% DMSO. Inhibition curves were determined by addition of 11 concentrations (0.0001-10 μM) of inhibitory compounds and using EC80 value of orexin-A as agonist (a concentration which gave 80% of max agonist response, determined daily). The antagonists were applied 25 min (incubation at 37° C.) before the application of the agonist. Responses were measured as peak increase in fluorescence minus basal, normalized to the maximal stimulatory effect induced by EC80 value of orexin-A or orexin-B. Inhibition curves were fitted according to the Hill equation: y=100/(1+(x/IC50)^nH), where nH=slope factor using Excel-fit 4 software (Microsoft).
Kb values were calculated according to the following equation Kb=IC50/(1+[A]/EC50) where A is the concentration of agonist added which is very close to agonist EC80 value, and IC50 and EC50 values were derived from the antagonist inhibition and orexin-A or B agonist curves, respectively.

SMILES | Kb [µM]
COc1cccc(OC)c1C(=O)N1CCC(Nc2nc3ccc(Cl)cc3o2)C1 (stereo not shown) [Example 1, [3-(6-Chloro-benzooxazol-2-ylamino)-pyrrolidin-1-yl]-(2,6-dimethoxy-phenyl)-methanone] | 0.0279
COc1cccc(OC)c1C(=O)N1CC[C@@H](Nc2nc3ccc(Cl)cc3o2)C1 [Example 5, [(R)-3-(6-Chloro-benzooxazol-2-ylamino)-pyrrolidin-1-yl]-(2,6-dimethoxy-phenyl)-methanone] | 0.0242
COc1cccc(OC)c1C(=O)N1CCC(Nc2cnc3ccccc3n2)C1 (stereo not shown) [Example 6, (2,6-Dimethoxy-phenyl)-[3-(quinoxalin-2-ylamino)-pyrrolidin-1-yl]-methanone] | 0.0104
COc1cccc(OC)c1C(=O)N1CCC(Nc2nc3ccc(Cl)cc3s2)C1 (stereo not shown) [Example 7, [3-(6-Chloro-benzothiazol-2-ylamino)-pyrrolidin-1-yl]-(2,6-dimethoxy-phenyl)-methanone] | 0.0228
COc1cccc(OC)c1C(=O)N1CC[C@@H](Nc2cnc3ccccc3n2)C1 [Example 24, (2,6-Dimethoxy-phenyl)-[(R)-3-(quinoxalin-2-ylamino)-pyrrolidin-1-yl]-methanone] | 0.0415
COc1cccc(OC)c1C(=O)N1CC[C@@H](Nc2nc3ccc(Cl)cc3s2)C1 [Example 25, [(R)-3-(6-Chloro-benzothiazol-2-ylamino)-pyrrolidin-1-yl]-(2,6-dimethoxy-phenyl)-methanone] | 0.0163
O=C(c1ccccc1-n1cccc1)N1CC[C@@H](Nc2nc3ccc(Cl)cc3o2)C1 [Example 28, [(R)-3-(6-Chloro-benzooxazol-2-ylamino)-pyrrolidin-1-yl]-(2-pyrrol-1-yl-phenyl)-methanone] | 0.0096
O=C(c1c(Cl)cccc1Cl)N1CC[C@@H](Nc2nc3ccc(Cl)cc3o2)C1 [Example 33, [(R)-3-(6-Chloro-benzooxazol-2-ylamino)-pyrrolidin-1-yl]-(2,6-dichloro-phenyl)-methanone] | 0.0354
Cc1cccc(Cl)c1C(=O)N1CC[C@@H](Nc2nc3ccc(Cl)cc3o2)C1 [Example 35, [(R)-3-(6-Chloro-benzooxazol-2-ylamino)-pyrrolidin-1-yl]-(2-chloro-6-methyl-phenyl)-methanone] | 0.045
COc1cccc(OC)c1C(=O)N1CC[C@@H](Nc2cnc3cc(Cl)ccc3n2)C1 [Example 41, [(R)-3-(6-Chloro-quinoxalin-2-ylamino)-pyrrolidin-1-yl]-(2,6-dimethoxy-phenyl)-methanone] | 0.0302
COc1cccc(OC)c1C(=O)N1CC[C@@H](Nc2nc3c(Cl)cccc3s2)C1 [Example 43, [(R)-3-(4-Chloro-benzothiazol-2-ylamino)-pyrrolidin-1-yl]-(2,6-dimethoxy-phenyl)-methanone] | 0.0015
CCc1ccccc1C(=O)N1CC[C@@H](Nc2nc3ccc(Cl)cc3o2)C1 [Example 47, [(R)-3-(6-Chloro-benzooxazol-2-ylamino)-pyrrolidin-1-yl]-(2-ethyl-phenyl)-methanone] | 0.0377
CCOc1ccccc1C(=O)N1CC[C@@H](Nc2nc3ccc(Cl)cc3o2)C1 [Example 52, [(R)-3-(6-Chloro-benzooxazol-2-ylamino)-pyrrolidin-1-yl]-(2-ethoxy-phenyl)-methanone] | 0.0249
CSc1ccccc1C(=O)N1CC[C@@H](Nc2nc3ccc(Cl)cc3o2)C1 [Example 53, [(R)-3-(6-Chloro-benzooxazol-2-ylamino)-pyrrolidin-1-yl]-(2-methylsulfanyl-phenyl)-methanone] | 0.0299
O=C(c1ccccc1OC(F)F)N1CC[C@@H](Nc2nc3ccc(Cl)cc3o2)C1 [Example 56, [(R)-3-(6-Chloro-benzooxazol-2-ylamino)-pyrrolidin-1-yl]-(2-difluoromethoxy-phenyl)-methanone] | 0.047
O=C(c1ccccc1-c1ccco1)N1CC[C@@H](Nc2nc3ccc(Cl)cc3o2)C1 [Example 57, [(R)-3-(6-Chloro-benzooxazol-2-ylamino)-pyrrolidin-1-yl]-(2-furan-2-yl-phenyl)-methanone] | 0.0025

Continued, values first:

Kb [µM] | SMILES
0.0054 | O=C(c1cnoc1-c1ccccc1)N1CC[C@@H](Nc2nc3ccc(Cl)cc3o2)C1 [Example 61, [(R)-3-(6-Chloro-benzooxazol-2-ylamino)-pyrrolidin-1-yl]-(5-phenyl-isoxazol-4-yl)-methanone]
0.014 | O=C(c1ccccc1-c1ncn[nH]1)N1CC[C@@H](Nc2nc3ccc(Cl)cc3o2)C1 [Example 62, [(R)-3-(6-Chloro-benzooxazol-2-ylamino)-pyrrolidin-1-yl]-[2-(2H-[1,2,4]triazol-3-yl)-phenyl]-methanone]
0.0219 | O=C(c1ccccc1C(F)(F)F)N1CC[C@@H](Nc2nc3ccc(Cl)cc3o2)C1 [Example 63, [(R)-3-(6-Chloro-benzooxazol-2-ylamino)-pyrrolidin-1-yl]-(2-trifluoromethyl-phenyl)-methanone]
0.0272 | O=C(c1ccccc1-c1cccnc1)N1CC[C@@H](Nc2nc3ccc(Cl)cc3o2)C1 [Example 65, [(R)-3-(6-Chloro-benzooxazol-2-ylamino)-pyrrolidin-1-yl]-(2-pyridin-3-yl-phenyl)-methanone]
0.0051 | Cc1onc(-c2ccccc2)c1C(=O)N1CC[C@@H](Nc2nc3ccc(Cl)cc3o2)C1 [Example 67, [(R)-3-(6-Chloro-benzooxazol-2-ylamino)-pyrrolidin-1-yl]-(5-methyl-3-phenyl-isoxazol-4-yl)-methanone]
0.0018 | Cc1ccc(C(F)(F)F)c(C(=O)N2CC[C@@H](Nc3nc4ccc(Cl)cc4o3)C2)c1 [Example 68, [(R)-3-(6-Chloro-benzooxazol-2-ylamino)-pyrrolidin-1-yl]-(5-methyl-2-trifluoromethyl-phenyl)-methanone]
0.0155 | Cc1noc(-c2ccccc2C(=O)N2CC[C@@H](Nc3nc4ccc(Cl)cc4o3)C2)n1 [Example 69, [(R)-3-(6-Chloro-benzooxazol-2-ylamino)-pyrrolidin-1-yl]-[2-(3-methyl-[1,2,4]oxadiazol-5-yl)-phenyl]-methanone]
0.0024 | O=C(c1ccccc1-c1cccs1)N1CC[C@@H](Nc2nc3ccc(Cl)cc3o2)C1 [Example 70, [(R)-3-(6-Chloro-benzooxazol-2-ylamino)-pyrrolidin-1-yl]-(2-thiophen-2-yl-phenyl)-methanone]
0.0097 | O=C(c1ccccc1OC(F)(F)F)N1CC[C@@H](Nc2nc3ccc(Cl)cc3o2)C1 [Example 71, [(R)-3-(6-Chloro-benzooxazol-2-ylamino)-pyrrolidin-1-yl]-(2-trifluoromethoxy-phenyl)-methanone]
0.0298 | O=C(c1c(F)cccc1C(F)(F)F)N1CC[C@@H](Nc2nc3ccc(Cl)cc3o2)C1 [Example 72, [(R)-3-(6-Chloro-benzooxazol-2-ylamino)-pyrrolidin-1-yl]-(2-fluoro-6-trifluoromethyl-phenyl)-methanone]
0.0012 | CCOc1cccc(OCC)c1C(=O)N1CC[C@@H](Nc2nc3ccc(Cl)cc3o2)C1 [Example 73, [(R)-3-(6-Chloro-benzooxazol-2-ylamino)-pyrrolidin-1-yl]-(2,6-diethoxy-phenyl)-methanone]
0.0163 | Cc1cccc(-c2ccccc2C(=O)N2CC[C@@H](Nc3nc4ccc(Cl)cc4o3)C2)c1 [Example 75, [(R)-3-(6-Chloro-benzooxazol-2-ylamino)-pyrrolidin-1-yl]-(3′-methyl-biphenyl-2-yl)-methanone]
